This note sets out measurements from patent US9637490B2, “Antifungal 5,6-dihydro-4-[(difluoroethyl)phenyl]-4H-pyrrolo[1,2-α][1,4]benzodiazepine and 4-(difluoroethyl)phenyl-6H-pyrrolo[1,2-α][1,4]benzodiazepine derivatives” (Janssen Pharmaceutica NV, priority 2010, dated 2017).

In data set [1] the test system is Rhizopus oryzae IHEM5223. The data set is described as follows: Antifungal activity in vitro (resazurin susceptibility screen), Inf. J. It is filed as cell-based. Conditions: Rhizopus arrhizus, 37 °C, 24 hours, resa time 6 hours. In a few lines:
(§1)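 Serial dilutions were tested up to 64 μM in RPMI-1640 with L-glutamine and 2% glucose, MOPS-buffered at pH 7.0, against an inoculum of 10^3 cfu per well. Incubation lasted from 24 h at 37° C. for yeasts to a week or more at 27° C. for dermatophytes. Growth was then read fluorimetrically after resazurin (ex 550/em 590 nm).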

For data set [2], the system named is Cryptococcus neoformans B66663. In words: Antifungal activity in vitro (resazurin susceptibility screen), Inf. F. It is filed as cell-based. Conditions: Cryptococcus neoformans, B66663, Cryptococcus neoformans B66663; 37 °C, 24 hours, resa time 4 hours. In a few lines:
as §1
In general terms: Resazurin is reduced to fluorescent resorufin, in cell work by metabolically active cells.

Data set [3] is described as follows: In vivo pharmacokinetic determinations (bioavailability) in guinea pigs. Conditions: guinea pig, po. The method, then: Three animals (mean weight 20±7 g for mice and 275±20 for Guinea pigs) were used per dose route, time point and formulation.
For the oral (PO) solution formulation, compound was dissolved in a 20% hydroxypropyl-β-cyclodextrin (HP-β-CD) solution at a final concentration of 1 mg/ml. HCl was added to facilitate dissolution. After dissolution, the pH was brought up to 3.7 with NaOH. Mannitol was added to make the solution isotonic. For the PO suspension formulation, compound was suspended in 0.5% methocel at a final concentration of 1 mg/ml. The formulations were stored at room temperature, protected from light and analysed quantitatively with LC-MS/MS on the day of preparation. Stability of the formulations was checked on the day of dosing.
The animals were dosed orally by gastric intubation at 10 ml/kg to obtain a final dose 10 mg/kg. Three dosed animals were sacrificed for blood sampling at 15 and 30 min, 1, 2, 3, 4, 6, 8 and 24 h after PO dose administration as a solution and at 30 min, 1, 2, 4, 6, 8 and 24 h after PO dose administration as a suspension.
Blood was collected by multiple sampling from a tail vein into Multivette® 600 K3E tubes (Sarstedt). Samples were placed immediately at approximately 4° C. and plasma was obtained following centrifugation at 4° C. for 10 minutes at approximately 1900×g. All samples were shielded from daylight and stored at ≦−18° C. prior to analysis.
Plasma samples were analysed for dosed compound using a qualified research LC-MS/MS method. The key analytical performance (linearity, upper and lower limit of quantification, accuracy and precision) of the method was reported together with the plasma concentrations.
A limited pharmacokinetic analysis was performed using WinNonlin™ Professional (Version 5.2.1). A non-compartmental analysis using the lin/log trapezoidal rule with lin/log interpolation was used for all data.

Data set [4] has as its system Trichophyton mentagrophytes B70554. In words: Antifungal activity in vitro (resazurin susceptibility screen), Inf. G. Type of data set: cell-based. Conditions: Trichophyton mentagrophytes, B70554, Trichophyton mentagrophytes B70554; 27 °C, 7 days, resa time 24 hours. The essentials: as §1
In data set [5] the test system is Sporothrix schenkii B62482. The data set is described as follows: Antifungal activity in vitro (resazurin susceptibility screen), Inf. A. It is filed as cell-based. Conditions: Sporothrix, B62482, Sporothrix schenkii B62482; 27 °C, 4 days, resa time 24 hours. The essentials: as §1
For data set [6], the system named is Trichophyton rubrum B68183. In words: Antifungal activity in vitro (resazurin susceptibility screen), Inf. C. It is filed as cell-based. Conditions: Trichophyton rubrum, B68183, Trichophyton rubrum B68183; 27 °C, 7 days, resa time 24 hours. The essentials:
as §1

The subject of data set [7] is Aspergillus fumigatus B42928. The data set is described as follows: Antifungal activity in vitro (resazurin susceptibility screen), Inf. E. Type of data set: cell-based. Conditions: Aspergillus fumigatus, B42928, Aspergillus fumigatus B42928; 27 °C, 48 hours, resa time 17 hours. In a few lines: as §1
Data set [8] deals with Scedosporium apiospermum IHEM3817. The data set is described as follows: Antifungal activity in vitro (resazurin susceptibility screen), Inf. H. Type of data set: cell-based. Conditions: Scedosporium apiospermum, IHEM3817, Scedosporium apiospermum IHEM3817; 37 °C, 48 hours, resa time 17 hours. In a few lines: as §1
In data set [9] the test system is Rhizomucor miehei IHEM13391. In words: Antifungal activity in vitro (resazurin susceptibility screen), Inf. K. Type of data set: cell-based. Conditions: Rhizomucor miehei, IHEM13391, Rhizomucor miehei IHEM13391; 37 °C, 48 hours, resa time 17 hours. In a few lines: as §1
Data set [10] concerns Mucor circinelloides IHEM21105. The data set is described as follows: Antifungal activity in vitro (resazurin susceptibility screen), Inf. L. It is filed as cell-based. Conditions: 27 °C, 48 hours, resa time 17 hours. The essentials:
as §1

Data set [11] has as its system Candida parapsilosis B66126. In words: Antifungal activity in vitro (resazurin susceptibility screen), Inf. D. It is filed as cell-based. Conditions: Lodderomyces parapsilosis, B66126, Candida parapsilosis B66126; 37 °C, 24 hours, resa time 4 hours. The essentials:
as §1

Structures are written as SMILES.

With `CC(F)(F)c1ccc(C2=NCc3c(Cl)cccc3-n3cccc32)cc1` [Compound 4, 7-chloro-4-[4-(1,1-difluoroethyl)phenyl]-6H-pyrrolo[1,2-a][1,4]benzodiazepine], the IC50 is over 64.6 µM in data set [1]; 21.4 µM in [2]; 0.891 µM in data set [4]; 12 µM in data set [5]; 0.234 µM in data set [6]; 2.24 µM in [7]. For the same molecule, the IC50 is over 64.6 µM in data set [8], over 64.6 µM in data set [9], over 64.6 µM in data set [10] and 3.09 µM in [11]. In [3], this molecule registered a bioavailability of 35%.

By IC50 is commonly meant the concentration needed to halve the response being measured. High values mean weaker potency in that assay, low ones greater potency in that assay. One may read the bioavailability as dose-corrected exposure relative to a reference, in per cent. Low values mean little systemic uptake, high ones much systemic uptake.
